Experimental data taken from ChEMBL document CHEMBL5543058, “The application of PROTAC in HDAC” (Eur J Med Chem, 2023).

Assays:
[1] = system: A549; assay: Growth inhibition of human A549 cells incubated for 72 hrs by MTT assay; assay type: functional
[2] = target: Protein cereblon/Histone deacetylase 8 (Homo sapiens, UniProt Q9BY41+Q96SW2); assay: PROTAC activity at HDAC8/CRBN in human A549 cells assessed as degradation of HDAC8 by Western blot analysis; assay type: cell-based
[3] = target: T1, Histone deacetylase 8 (Homo sapiens) (UniProt Q9BY41); assay: Induction of HDAC8 degradation in human A549 cells assessed as maximum degradation at 0.1 to 160 uM measured after 10 hrs by Western blot analysis relative to control; assay type: cell-based; details: dose 0.1-160 µM
T1 sequence (whole entry): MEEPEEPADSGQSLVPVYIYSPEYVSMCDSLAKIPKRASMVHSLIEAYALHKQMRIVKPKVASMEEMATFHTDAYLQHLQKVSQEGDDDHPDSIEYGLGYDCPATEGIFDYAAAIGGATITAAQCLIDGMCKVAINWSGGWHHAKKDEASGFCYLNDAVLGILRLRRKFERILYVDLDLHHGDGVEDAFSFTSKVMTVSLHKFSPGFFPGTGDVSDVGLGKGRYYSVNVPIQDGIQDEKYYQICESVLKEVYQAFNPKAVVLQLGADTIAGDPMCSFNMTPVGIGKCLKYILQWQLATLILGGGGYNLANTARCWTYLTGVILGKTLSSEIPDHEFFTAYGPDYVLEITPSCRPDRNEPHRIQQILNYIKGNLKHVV

[4] = system: A549; assay: Antiproliferative activity against human A549 cells assessed as inhibition of cell growth measured after 48 hrs by SRB assay; assay type: functional
[5] = target: von Hippel-Lindau disease tumor suppressor/Histone deacetylase 2 (Homo sapiens, UniProt Q92769+P40337); assay: Protac activity at VHL/LSD1/HDAC2/CoREST complex interaction in human HCT-116 cells assessed as induction of HDAC2 degradation by fluorescence based assay; assay type: cell-based
[6] = target: von Hippel-Lindau disease tumor suppressor/Histone deacetylase 3 (Homo sapiens, UniProt O15379+P40337); assay: Protac activity at VHL/LSD1/HDAC3/CoREST complex interaction in human HCT-116 cells assessed as induction of HDAC3 degradation by fluorescence based assay; assay type: cell-based
[7] = target: von Hippel-Lindau disease tumor suppressor/Histone deacetylase 1 (Homo sapiens, UniProt Q13547+P40337); assay: Protac activity at VHL/LSD1/HDAC1/CoREST complex interaction in human HCT-116 cells assessed as HDAC1 degradation by fluorescence based assay; assay type: cell-based
[8] = target: T2, Histone deacetylase 8 (Homo sapiens, UniProt Q9BY41); assay: Inhibition of HDAC8 (unknown origin) using acetyl-Gly-Ala-(N-acetyl-Lys)-amino-4-methylcoumarin as substrate measured after 30 mins by fluorescence assay
T2 sequence (Q9BY41 whole entry): T1 sequence (whole entry)

[9] = system: Jurkat; assay: Growth inhibition of human Jurkat cells; assay type: functional

Chain of von Hippel-Lindau disease tumor suppressor/Histone deacetylase 2 (Q92769 whole entry): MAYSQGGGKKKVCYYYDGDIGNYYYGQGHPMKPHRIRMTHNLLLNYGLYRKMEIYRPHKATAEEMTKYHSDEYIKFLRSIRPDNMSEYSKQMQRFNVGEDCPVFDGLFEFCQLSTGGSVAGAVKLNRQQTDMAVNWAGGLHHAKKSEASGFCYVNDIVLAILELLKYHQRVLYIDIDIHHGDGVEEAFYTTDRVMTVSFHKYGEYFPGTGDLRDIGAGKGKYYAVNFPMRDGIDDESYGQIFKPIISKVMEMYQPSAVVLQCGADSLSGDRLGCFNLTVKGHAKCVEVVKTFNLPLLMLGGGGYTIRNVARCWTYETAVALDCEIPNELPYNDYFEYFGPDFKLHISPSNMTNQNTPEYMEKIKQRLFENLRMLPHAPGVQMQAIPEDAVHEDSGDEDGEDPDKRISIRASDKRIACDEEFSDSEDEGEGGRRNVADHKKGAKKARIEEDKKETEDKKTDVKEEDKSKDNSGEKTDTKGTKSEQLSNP
Chain of von Hippel-Lindau disease tumor suppressor/Histone deacetylase 2 (P40337 whole entry): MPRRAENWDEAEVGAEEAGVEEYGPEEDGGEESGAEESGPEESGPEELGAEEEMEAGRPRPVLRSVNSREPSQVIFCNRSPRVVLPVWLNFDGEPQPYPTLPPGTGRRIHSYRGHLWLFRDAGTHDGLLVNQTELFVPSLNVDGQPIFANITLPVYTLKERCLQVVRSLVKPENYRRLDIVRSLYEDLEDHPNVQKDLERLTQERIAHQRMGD
Chain of von Hippel-Lindau disease tumor suppressor/Histone deacetylase 1 (Q13547 whole entry): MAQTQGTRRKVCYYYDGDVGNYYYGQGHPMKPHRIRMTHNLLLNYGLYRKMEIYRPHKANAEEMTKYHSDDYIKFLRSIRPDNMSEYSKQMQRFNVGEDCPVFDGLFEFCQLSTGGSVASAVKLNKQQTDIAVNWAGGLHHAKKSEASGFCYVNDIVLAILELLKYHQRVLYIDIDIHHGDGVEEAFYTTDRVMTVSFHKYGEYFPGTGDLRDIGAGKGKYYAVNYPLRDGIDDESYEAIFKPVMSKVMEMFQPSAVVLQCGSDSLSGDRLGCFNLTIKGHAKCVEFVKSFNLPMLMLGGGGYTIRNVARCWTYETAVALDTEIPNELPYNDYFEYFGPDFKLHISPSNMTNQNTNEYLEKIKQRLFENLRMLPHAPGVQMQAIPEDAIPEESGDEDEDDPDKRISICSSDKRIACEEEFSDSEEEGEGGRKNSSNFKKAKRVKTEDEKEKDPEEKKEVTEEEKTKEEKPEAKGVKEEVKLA
Chain of von Hippel-Lindau disease tumor suppressor/Histone deacetylase 1 (P40337 whole entry): as the sequence (P40337 whole entry) above
Chain of von Hippel-Lindau disease tumor suppressor/Histone deacetylase 3 (O15379 whole entry): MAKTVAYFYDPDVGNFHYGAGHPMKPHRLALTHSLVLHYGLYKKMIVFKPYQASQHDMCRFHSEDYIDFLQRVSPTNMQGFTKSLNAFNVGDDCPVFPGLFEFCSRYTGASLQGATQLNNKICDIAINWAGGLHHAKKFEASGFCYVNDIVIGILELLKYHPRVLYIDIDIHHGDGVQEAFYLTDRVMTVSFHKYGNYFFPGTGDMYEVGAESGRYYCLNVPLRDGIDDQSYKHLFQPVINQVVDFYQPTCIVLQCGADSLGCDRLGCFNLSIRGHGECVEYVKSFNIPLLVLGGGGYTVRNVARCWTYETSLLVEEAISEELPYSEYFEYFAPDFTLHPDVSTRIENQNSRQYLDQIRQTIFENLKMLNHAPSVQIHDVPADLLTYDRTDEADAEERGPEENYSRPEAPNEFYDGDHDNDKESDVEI
Chain of von Hippel-Lindau disease tumor suppressor/Histone deacetylase 3 (P40337 whole entry): as the sequence (P40337 whole entry) above
Chain of Protein cereblon/Histone deacetylase 8 (Q96SW2 whole entry, one chain of several): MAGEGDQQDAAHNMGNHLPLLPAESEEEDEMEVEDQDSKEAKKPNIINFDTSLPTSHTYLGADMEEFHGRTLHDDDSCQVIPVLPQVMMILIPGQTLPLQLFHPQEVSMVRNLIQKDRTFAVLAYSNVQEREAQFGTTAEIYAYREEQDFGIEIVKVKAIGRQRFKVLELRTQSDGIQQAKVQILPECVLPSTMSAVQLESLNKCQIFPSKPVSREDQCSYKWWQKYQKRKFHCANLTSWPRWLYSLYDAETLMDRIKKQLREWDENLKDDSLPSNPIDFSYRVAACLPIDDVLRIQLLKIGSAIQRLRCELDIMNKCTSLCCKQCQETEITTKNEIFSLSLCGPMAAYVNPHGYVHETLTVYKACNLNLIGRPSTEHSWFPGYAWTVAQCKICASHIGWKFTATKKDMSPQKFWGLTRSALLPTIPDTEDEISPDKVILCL

Question: With `O=C1CCC(N2C(=O)c3cccc(NCc4cn(CCOCCOc5ccc(Cn6ccc7ccc(C(=O)NO)cc76)cc5)nn4)c3C2=O)C(=O)N1` (stereo unspecified) as the compound, how does the GI50 [1] read?
Answer: Its GI50 is 9550 nM.

Question: What about the DC50 [2] of the same compound?
Answer: The DC50 was 580 nM.

Question: And the Emax [3]?
Answer: The Emax was 95%.

Question: With `COc1ccc(Cn2ccc3ccc(C(=O)NO)cc32)cc1` as the compound, how does the GI50 [4] read?
Answer: The GI50 was 15800 nM.

Question: Which DC50 [5] does the source give for `Cc1ncsc1-c1ccc(CNC(=O)[C@@H]2C[C@@H](O)CN2C(=O)[C@@H](NC(=O)CCCCCCCCCCC(=O)Nc2ccc(C(=O)Nc3ccccc3N)cc2)C(C)(C)C)cc1` here?
Answer: The DC50 was 1000 nM.

Question: What about the DC50 [6] of the same compound?
Answer: Its DC50 is 1000 nM.

Question: What about the DC50 [7] of the same compound?
Answer: The DC50 was 1000 nM.

Question: For `O=C(NO)c1cccc(-n2cc(CSc3ccccc3)nn2)c1`, which IC50 [8] is on record?
Answer: The IC50 was 53 nM.

Question: And the GI50 [9]?
Answer: The GI50 was 7090 nM.

Question: How did the IC50 [8] turn out when `O=C1CCC(N2C(=O)c3cccc(NCCCCCCCCCCCNC(=O)c4cccc(SCc5cn(-c6cccc(C(=O)NO)c6)nn5)c4)c3C2=O)C(=O)N1` (stereo unspecified) was run?
Answer: The IC50 was 372 nM.

Question: What about the GI50 [9] of the same compound?
Answer: The GI50 was 780 nM.
